What was measured:
[1] = Stability of DITS in a generic shampoo matrix after storage at 40° C. for 8 weeks, by HPLC; format: physicochemical
Procedure: All analytical data were obtained by high performance liquid chromatography (“HPLC”) analysis for content for diiodomethyl-p-tolylsulfone (DITS) and monoiodomethyl-p-tolylsulfone (MITS). Analysis was done on an Agilent HP system using a Phenomenex Bondclone 10 micron C18 reverse phase column (300×3.9 mm, 10 microns) at a flow rate of 2 mL/min, isocratic 55% acetonitrile in water for 17 min. Under these conditions DITS elutes at 3.9-4.3 min and MITS elutes at 2.9-3.3 min, depending on the shampoo matrix. […]
To a 250 mL glass jar were added 24.81 g water and 0.2526 g SL 400. The mixture was stirred vigorously for 1.5 h. Then, 1.0302 g milled AMICAL™ diiodomethyl-para-tolylsulfone was added, and the mixture was stirred for an additional 1.5 hours. After that, the premix was heated to 68° C. in a hot water bath, and a pre-blended mixture of Standapol* EA-3 (32.98 g), Standapol* A (11.16 g), and LAA (16.70 g) was added with agitation. 12.9 g of DI water was added next, and stirring was continued in the hot water bath. After 10 min, […] to adjust the pH. After an additional 10 min, the temperature of the mixture was recorded (68° C.) and the heating was stopped. The mixture was stirred on high speed for another hour, until it cooled. At that point, 0.31 g Glydant* and 0.30 g fragrance were added, and the sample was adjusted with water to 100 g formulation. Stirring continued for another hour. […]
This procedure was followed for all the polymers listed in Table 1, at the stated polymer concentration. In all cases, AMICAL™ 48 milled to a D50=2 microns was used (diiodomethyl-p-tolylsulfone content 92.5%). Detailed here is the example involving SOFTCAT™ SL 400 at 0.25% concentration.
To a 250 mL glass jar were added 24.82 g water and 0.2644 g SOFTCAT™ SL 400. The mixture was stirred vigorously for 1.5 h. Separately, in a 250 mL beaker were combined Standapol* EA-3 (33.57 g), Standapol* A (11.08 g), and LAA (16.13 g). The mixture was stirred vigorously using an overhead stirrer, and after 10 min, 1.0120 g milled DITS (AMICAL™ 48) was added, followed by 5.0 g water. The DITS-surfactant blend was stirred for 1.25 hours. After that, the DITS—surfactant blend was added with agitation to the polymer solution which had been heated to 58° C. in a hot water bath. 8.12 g of deionized water was added next, and stirring was continued in the hot water bath. After 10 min, 1 mL of a 10% aqueous citric acid solution was added to adjust the pH. After an additional 15 min, the temperature of the mixture was recorded (58° C.) and the heating was stopped. The mixture was stirred on high speed for another hour, until it cooled. At that point, 0.44 g Glydant* and 0.3 g fragrance were added, and the sample was adjusted with water to 100 g formulation. […]

[2] = cited from earlier work
[3] = tested on: fungi; settings: wide variety of fungi; cited from earlier work

**Q.** For `Cc1ccc(S(=O)(=O)C(I)I)cc1` [DITS, diiodomethyl-para-tolylsulfone], which “DITS content after storage (HPLC)” value ([1]; Example 4, no polymer control, 8 week at 40° C.) is on record?
**A.** 0.44%

**Q.** What about the “DITS content at time zero (HPLC)” value ([1]; Example 4, no polymer control, time zero) of the same compound?
**A.** 1.02%

**Q.** What about the decomposition ([1]; control samples formulated without polymer, shampoo matrix, 8 weeks at 40° C.) of the same compound?
**A.** ~60%

**Q.** What about the “% DITS left when added to surfactant blend” value ([1]; generic shampoo matrix, 40° C. for 8 weeks, no polymer (control, Example 4)) of the same compound?
**A.** 43.2%

**Q.** What about the water solubility [2] of the same compound?
**A.** less than 10 ppm

**Q.** What about the minimum inhibitory concentration [3] of the same compound?
**A.** less than 10 ppm
